Activity calls are given as the source filed them. No cut-off for these calls is given here.
Tests used:
Type in all cases: functional, cell-based
[1] = tested on: PC-12; experiment: Enhancement of neurite outgrowth in rat PC12D cells up to 30 uM in absence of nerve growth factor
[2] = tested on: PC-12; experiment: Enhancement of nerve growth factor-stimulated neurite outgrowth in rat PC12D cells at 1 to 3 uM
[3] = tested on: PC-12; experiment: Enhancement of nerve growth factor-stimulated neurite outgrowth in rat PC12D cells at 3 to 10 uM

SMILES | Activity [1] | Activity [2] | Activity [3]
C[C@H]1[C@H](C)CC[C@]2(C(=O)O)CC[C@]3(C)C(=CC[C@@H]4[C@@]5(C)CC[C@H](O)C(C)(C)[C@@H]5CC[C@]43C)[C@H]12 | inactive | Active | 
CC1(C)CC[C@]2(C(=O)O)CC[C@]3(C)C(=CC[C@@H]4[C@@]5(C)CC[C@H](O)C(C)(C)[C@@H]5CC[C@]43C)[C@@H]2C1 | inactive |  | Active
CC[C@H](C[C@@H](O)[C@@H](C)[C@H]1CC[C@H]2[C@@H]3[C@H](O)C=C4C[C@@H](O)CC[C@]4(C)[C@H]3CC[C@]12C)C(C)C | inactive |  | Active
CC[C@H](C[C@@H](O)[C@@H](C)[C@H]1CC[C@H]2[C@@H]3[C@H](O)C=C4[C@@H](O)[C@@H](O)CC[C@]4(C)[C@H]3CC[C@]12C)C(C)C | inactive |  | 

Reference: ChEMBL document CHEMBL1146520, “Sterol and triterpenoid constituents of Verbena littoralis with NGF-potentiating activity” (J Nat Prod, 2003)
